“And” between values parts separate entries of the source, which are not always exact repeats. Equal entries are not always repeated. “Also recorded” adds a separate entry of the source. Where two headings read alike, the source gives them in different places.
How the values were obtained:
Jurkat = test: Sensitivity of cell lines towards BT062; type: cell-based; conditions: T cell lymphoma
[1] = system: relapsed or relapsed refractory multiple myeloma
Description: Initially, the response to treatment was evaluated at day 1 of treatment cycles 1-3 by M-protein quantification using immunoelectrophoresis (IEP) and immunofixation electrophoresis (IFE) from serum and 24-hour urine collection. […] A general quantitative immunoglobulin assessment was done together with M-protein quantification.
Serum samples were used to perform FLC assays to examine multiple myeloma subjects with no detectable M-protein (nonsecretory/oligosecretory myeloma) and to allow for detection of early response to treatment. Therefore serum FLC assays were performed on day 1, 2, 3, and 8 of treatment cycle 1, on day 2, 3, 8 and 15 of cycle 4, as well as on day 1, 8 and 15 of all other treatment cycles. M-protein and FLC were be analyzed at the screening and at the close-out visit. Evaluations at day 1 of cycle 1 served as baseline values.

[2] = Plasma level of BT062 (PK ELISA), repeated multiple dose; type: in vivo, human
Description: Theoretical Cmax was Calculated According to the Following Assumed Parameters: […]
The same evaluation was performed during treatment cycle 4.
The wells of a microtiter plate are first coated with anti-maytansinoid (anti-DM4) antibody overnight at 2-8° C. and after blocking with assay buffer (0.5% BSA/TBS) incubated on the next day with plasma samples. These are diluted beforehand at least 1:100 in assay buffer. […] After incubation, unbound material is removed by washing. […] Unbound secondary antibody is removed by another washing step. After this, TMB substrate solution is pipetted into all the wells. […] The color reaction is ended using a stop solution, which causes the color to change from blue to yellow. The final measurement is carried out with a photometer at a wavelength of 450 nm.
The relationship between concentration and optical density is evaluated using Magellan V6.6 software.

OPM-2 cells = test: FACS analysis of binding; type: cell-based; conditions: FIG. 6
From the text: OPM-2 cells are plasma cell leukaemia cell lines showing highly expressing CD138. […] The cells were washed and CD138-bound antibody or conjugates were detected using a fluorescence-labelled secondary antibody in FACS analysis. The mean fluorescence measured in these experiments was plotted against the antibody concentration.

[3] = system: pancreatic tumor tissue PAXF 736; test: Pancreas carcinoma xenograft; type: in vivo, NMRI mice; conditions: for T/C (%): day 52
Description: These tumors display similar characteristics as the patient tumors, since they are passaged in mice at low numbers, to retain original characteristics.
Tumor diameters have been measured two times a week. Tumor volumes were calculated according to the formula axbxb/2 where “a” is the longest axis and “b” the perpendicular axis thereto.
Tumor inhibition for a particular day (T/C in %) was calculated from the ratio of the median RTV (relative tumor volume) values of test versus control groups multiplied by 100%.

[4] = system: primary mammary tumor of a patient; test: Mammary carcinoma xenograft; type: in vivo, NMRI (nude) mice; conditions: for T/C: day 21
[5] = system: human derived breast cancer model with CD138 IHC score 2-3; test: Breast cancer model, CD138 IHC score 2-3; type: in vivo, NMRI nude mice; conditions: 8 mg/kg once weekly
From the text: The results are shown in terms of the effect on the mean relative tumor volume in the model relative to an intravenous administration of PBS. For the calculation of the median relative tumor volume on day, see FIG. 33.

[6] = system: human derived breast cancer model with CD138 IHC score 1-2; test: Breast cancer model, CD138 IHC score 1-2; type: in vivo, NMRI nude mice; conditions: 1-4 mg/kg once weekly (FIG. 37)
From the text: No difference in the treatment regimens was observed. The results are shown in terms of the effect on the mean relative tumor volume in the model relative to an intravenous administration of PBS. For the calculation of the median relative tumor volume on day, see FIG. 33.

primary pancreatic tumor = test: Example 9 xenograft (FIG. 38); type: in vivo, NMRI (nude) mice; conditions: 4 and 8 mg/kg once weekly; re-growth in treatment free period
From the text: The results are shown in terms of the effect on the mean relative tumor volume.

[7] = system: plasma cell myeloma cell line L363; type: in vivo, NOD/SCID mice; conditions: 4 mg/kg BT062 alone, once weekly
Description: In this model, a highly aggressive CD138 expressing plasma cell myeloma cell line L363 was subcutaneously implanted into NOD/SCID mice. Treatment started when tumors reached a size of approx. 100 mm^3. […] Tumor size was measured once weekly.

[8] = Half life in human plasma ex vivo; type: in vitro ADME
[9] = system: MOLP 8 human myeloma cells
From the text: Female SCID mice were subcutaneously inoculated with MOLP 8 human myeloma cells. […] A control group of animals received phosphate buffered saline (PBS) using the same schedule and route of administration. Tumor growth was monitored by measuring tumor size and calculated with the formula length×width×height×1/2, determined on days 10, 14, 18 and 21.
FTV: Fractional tumor volume=mean tumor volume (test)/mean tumor volume (control)

[10] = repeated single doses of 160 mg/m^2 (FIG. 28)

Substance: BT062
- IC50 (Jurkat): 39 nM
- treatment cycles of 21 days without disease progression ([1]; 20 mg/m^2, one patient): 10 cycles and Diseases progression after Cycle 10 cycles
- response (urine M-protein criteria) ([1]; 20 mg/m^2, after 8th treatment): M-Protein criteria for Minor Response reached after 8th
- Serum M-Protein ([1]; 40 mg/m^2, after 1st treatment): Serum M-Protein decreased after 1st treatment and stabilized
- response (FLC criteria) ([1]; 160 mg/m^2, after 2nd, 3rd and 4th administration (FIG. 26)): partial response; also recorded: FLC criteria for Partial Response were reached very early
- FLC levels reduced vs baseline ([1]; 160 mg/m^2, after 2nd, 3rd and 4th treatment): > 50%
- FLC levels reduced vs baseline ([1]; 160 mg/m^2, during 1st cycle): ~40%
- toxicity in the mucosa ([1]; 200 mg/m^2 dose group): DLTs
- patients out of 32 with diminished disease progression (at least a fourth treatment cycle) ([1]; all dose levels): At least 12
- MTD ([1]; human, in vivo): 160 mg/m^2
- decrease of urine M-protein ([1]; repeated single dosages, e.g. 20, 40, 80 and 120 mg/m^2): more than 50%
- MAD ([1]; repeated single dose): 200 mg/m^2
- toxicity towards non-cancer cells expressing CD138 ([1]; repeated single dose up to 120 mg/m^2): no dose limiting toxicity
- eye toxicity ([1]; repeated single dose, not qualifying for DLT): Serious adverse events
- M-protein levels reduced by [1, 10]: 25%
- progression free survival [1, 10]: about 22 months
- Tolerability ([1]; single dose every three weeks, 200 mg/m^2): DLTs
- dose limiting toxicity (DLT) dose ([1]; single dose once in 21 day cycle): 200 mg/m^2
- % of theoretical Cmax, Mean (%) ([2]; 40 mg/m^2 weekly): 33%
- Mean conc. missing to theor. Cmax per Cycle ([2]; 40 mg/m^2 weekly, table rows = cycles C1 to C4): 19.5
- % of theoretical Cmax, Mean (%) ([2]; 50 mg/m^2 weekly): 33%
- Mean conc. missing to theor. Cmax per Cycle ([2]; 50 mg/m^2 weekly, table rows = cycles C1 to C4): 23.3
- % of theoretical Cmax, Mean (%) ([2]; 65 mg/m^2 weekly): 60%
- % of theoretical Cmax ([2]; 65 mg/m^2 weekly, cycle/day C1 D1 to C3 D15): 43% and 63% and 72% and 52% and 61% and 71% and 73%
- Mean conc. missing to theor. Cmax per Cycle ([2]; 65 mg/m^2 weekly, table rows = cycles C1 to C3): 15.3
- Plasma level/Mean ([2]; 80 mg/m^2, 2 hr after completion of administration on days 0, 7, 14): 22.91 µg/mL
- % of theoretical Cmax ([2]; 80 mg/m^2 weekly, cycle/day C1 D1 to C3 D15): 42% and 45% and 50% and 43% and 39% and 53% and 41%
- Mean conc. missing to theor. Cmax per Cycle ([2]; 80 mg/m^2 weekly, table rows = cycles C1 to C3): 30.3
- % of theoretical Cmax, Mean (%) ([2]; 100 mg/m^2 weekly): 108%
- % of theoretical Cmax, Mean (%) ([2]; 120 mg/m^2 weekly): 69%
- % of theoretical Cmax ([2]; 120 mg/m^2 weekly, cycle/day C1 D1 to C2 D15): 69% and 74% and 79% and 62% and 67%
- actual Cmax as % of theoretical Cmax ([2]; 3×50 mg/m^2 on days 1, 8, 15): < 50%
- binding characteristics (OPM-2 cells): very similar binding characteristics
- complete remission obtained, days after tumor implantation ([3]; 13.25 mg/kg): 35 days
- mice alive after 52 days ([3]; 13.25 mg/kg): 8/8
- T/C (%) ([3]; 13.25 mg/kg once weekly): 0.0%
- complete remission obtained, days after tumor implantation ([3]; 23.85 mg/kg): 28 days
- T/C (%) ([3]; 23.85 mg/kg once weekly): 0.0%
- tumor regrowth in treatment free observation phase ([3]; both treatment groups): no tumor regrowth
- side effects ([3]; mouse, in vivo): No side effects
- mice with complete remission without tumor regrowth ([4]; 1 mg/kg once weekly): 3/7
- mice with partial remission ([4]; 1 mg/kg once weekly): 2/7
- tumor response ([4]; 1 mg/kg once weekly): tumor stasis
- T/C ([4]; 13.25 mg/kg/4 mg/kg): 0.0
- T/C ([4]; 23.85 mg/kg): 0.0
- tumor response ([4]; 4 and 2 mg/kg once weekly (FIG. 35)): complete remission
- tumor regrowth in treatment free observation period ([4]; 39 days after the last administration): no tumor regrowth
- complete remission achieved after ([4]; FIG. 9): 21 days
- T/C value ([4]; both treatment groups): below 10%
- influence on body weight after each injection ([4]; mouse, in vivo): no influence on body weight
- tumor response [5]: complete remission
- tumor response [6]: did not respond
- tumor response (primary pancreatic tumor): complete remission
- tumor growth [7]: active in reducing the tumor growth
- plasma half life [8]: 14 days
- Regressions Complete ([9]; BT062 100 ug/kg): 0/6
- Regressions Partial ([9]; BT062 100 ug/kg): 0/6
- Result ([9]; BT062 100 ug/kg): Active
- T/C (%) (DAY 17) ([9]; BT062 100 ug/kg): 35%
- Tumor free survivors day 77 ([9]; BT062 100 ug/kg): 0/6
- Regressions Complete ([9]; BT062 200 ug/kg): 0/6
- Regressions Partial ([9]; BT062 200 ug/kg): 0/6
- Result ([9]; BT062 200 ug/kg): Active
- T/C (%) (DAY 17) ([9]; BT062 200 ug/kg): 14%
- Tumor free survivors day 77 ([9]; BT062 200 ug/kg): 0/6
- Regressions Complete ([9]; BT062 400 ug/kg): 1/6
- Regressions Partial ([9]; BT062 400 ug/kg): 4/6
- Result ([9]; BT062 400 ug/kg): highly active (A Log10 cell kill of higher than 2.8)
- T/C (%) (DAY 17) ([9]; BT062 400 ug/kg): 9%
- Tumor free survivors day 77 ([9]; BT062 400 ug/kg): 0/6

Reference: patent publication US20190117770A1, “USES OF IMMUNOCONJUGATES TARGETING CD138” (Biotest AG, priority 2011, published 2019)
